Like-named read-outs stand apart in the source and are kept apart here.
How the values were obtained:
[1] = Cyclic voltammetry, oxidative stability window in diglyme
Experimental: The counter electrode was lithium metal. […] The scan rate for each CV measurement was 50 mV/s. The Al dissolution resistance was measured by cyclic voltammetry of a 2-electrode Li∥Al CR2032 coin cell. The potential was swept from 2 V to 6.1 V for a total of 5 cycles. The cell consisted of Li foil and aluminum foil (1.77 cm^2) separated by a 25 μm trilayer celgard membrane (polypropylene-polyethylene-polypropylene).
Since it has been reported that increasing the salt concentration also improves the electrochemical window,^103,107 the stability window of each electrolyte at its highest concentration was examined. In a 3-electrode cell using a platinum working electrode, Li metal counter and a silver wire reference to avoid electrolyte contamination, cyclic voltammetry was used to examine the oxidative window. Multiple scans were collected to see if there was any change with repeat cycling to highly positive voltages (FIG. 5). As a comparison, the most concentrated possible LiTFSI solution (0.2 mol fraction) was also tested.

[2] = Ionic conductivity measurements; assay type: physicochemical
Experimental: Ionic Conductivity Measurements A homemade conductivity cell was constructed with two polished stainless steel parallel plates (˜0.3 cm^2) separated by ˜0.2 cm in a Teflon cup. The entire cell was placed in a sealed vial to minimize electrolyte evaporation. To calibrate the cell constant, two conductivity standards (Sigma Aldrich) were used, 25 and […]. The calibrated cell constant was calculated to be 0.706 cm′±0.008 cm^−1. […] […] The electrochemical impedance spectrum was collected from 1 MHz to 0.5 Hz with an AC amplitude of 10 mV. The electrolyte resistance was taken as the impedance where the phase angle is as close to […] as possible in order to minimize any contribution from capacitance or inductance. All conductivity measurements were performed in an argon filled glove box.

[3] = Solubility of potassium salts in DME; conditions: mol fraction of salt
[4] = Solubility of lithium salts in diglyme; assay type: physicochemical
Excerpt: In order to probe structure-property relationships among sulfonamide salts, the ionic conductivity was investigated in diglyme solvent and compared with that of LiTFSI. Ethers such as diglyme have strong Lewis basicity, high chemical stability and can dissolve lithium salts via Li+ cation coordination by the lone pair on the oxygen atom.^105 However, the solubility of LiTFSI is relativity low and cannot access the concentrated electrolyte regime. This is in stark contrast to all of the sulfonamide salts investigated here. The solubility of the salts increase in the order LiTFSI<LiMPSA<LiFBSA≈LiFPSA≈LiDESA. To the best of the inventors' knowledge, in ether solvent, these sulfonamide salts have the highest solubility among any lithium salt (0.4× salt, molar ratio diglyme: Salt […]). The ionic conductivity of these electrolytes were investigated as a function of concentration (FIG. 4). The sulfonamide based electrolytes span a much larger concentration range of up to 0.4 mol fraction, where LiTFSI can only be increased up to 0.2 mol fraction. […] This could be due to reduced viscosity of the electrolytes with fluorinated derivatives as well as the ability of the ether oxygen within LiMPSA and LiDESA to coordinate the lithium cation even at low concentrations in a similar fashion to that of diglyme solvent. […]

**Q.** With `COCCC[N-]S(=O)(=O)C(F)(F)F.[Li+]` [LiMPSA] as the molecule, how does the “oxidative stability window (in words)” value [1] read?
**A.** one of the highest stabilities

**Q.** What about the “potential out to which cycles after the first show high stability” value [1] of the same molecule?
**A.** 6-7 V

**Q.** What does the source list for `O=S(=O)([N-]CC(F)(F)C(F)(F)F)C(F)(F)F.[Li+]` [LiFPSA]?
**A.** ionic conductivity compared with salts with an incorporated ether group ([2]; in diglyme): higher ionic conductivity; oxidative stability window (in words) [1]: smallest stability window

**Q.** For `O=S(=O)([N-]S(=O)(=O)C(F)(F)F)C(F)(F)F.[K+]` [KTFSI, potassium bis(trifluoromethanesulfonyl)imide, reference compound], which “solubility (mol fraction that can be reached)” value [3] is on record?
**A.** ~0.34 X

**Q.** For `O=S(=O)([N-]S(=O)(=O)C(F)(F)F)C(F)(F)F.[Li+]` [LiTFSI, lithium bis(trifluoromethanesulfonyl)imide, reference compound], which “solubility (highest concentration reached)” value [4] is on record?
**A.** up to 0.2 mol fraction

**Q.** What about the “potential above which rapid decomposition occurs” value ([1]; 0.2 mol fraction in diglyme, Pt working electrode, 50 mV/s) of the same molecule?
**A.** above 5 V

**Q.** And the “oxidative stability window (in words)” value ([1]; each electrolyte at its highest concentration in diglyme (LiTFSI 0.2, LiFPSA 0.4, LiDESA 0.4, LiMPSA 0.33 mol fraction))?
**A.** one of the lowest stabilities

**Q.** Which ionic conductivity ([2]; 0.6× KMPSA/DME electrolyte, 25° C.) does the source give for `COCCC[N-]S(=O)(=O)C(F)(F)F.[K+]` [KMPSA] here?
**A.** 0.037 mS/cm

**Q.** What about the ionic conductivity ([2]; molten salt, 45° C.) of the same molecule?
**A.** 0.003 mS/cm

**Q.** What about the “solubility (mol fraction that can be reached)” value [3] of the same molecule?
**A.** 0.6 X

Reference: patent publication US12021195B2, “Asymmetric electrolyte salts and batteries incorporating such salts” (OHIO STATE INNOVATION FOUNDATION, priority 2019, dated 2024)
